Measurements taken from PubChem BioAssay AID1963849 (Molecular Pharmacology Branch, DTP, NCI, 2024).

Tested on: 299254-011-R-J1-PDC complex spheroid viability
Assay: Anticancer human tumor 299254-011-R-J1-PDC patient-derived melanoma cell line growth inhibition [POLQ]
Conditions: for IC50: curve of first compound; for viability, T/C: stronger effect = lower value
Method: Multicellular complex tumor spheroid response to Polymerase (POL) inhibitors (novobiocin, ART-558, RP6685) in combination with a variety of drugs and investigational agents in selected tumor cell lines
The POL inhibitors (novobiocin, ART-558, and RP6685) were evaluated both individually and in combination with standard of care and investigational anticancer small molecules within a complex spheroid model of solid tumors. . Complex spheroids include a stromal component modeled by human endothelial cells (HUVEC) and fibroblasts modeled by human mesenchymal stem cells (MSCs). The concentration ranges selected for each drug and investigational agent were based upon clinically achievable concentrations if the clinical Cmax of the agent was known.
Compounds. The drugs and investigational agents: novobiocin (NSC847541), ART-558 (NSC835418), RP-6685 (NSC848927), peposertib (NSC802822), ceralasertib (NSC780249), elimusertib (NSC800525), camonsertib (NSC841442), AZD-1390 (NSC803789), olaparib (NSC753686), talazoparib (NSC767125), rucaparib (NSC756644), sotorasib (NSC818433), MRTX-1133 (NSC836407), SN-38 (NSC673596), topotecan (NSC609699), epotoside (NSC141540), doxorubicin (NSC123127), gemcitabine (NSC613327), 5-fluorouracil (NSC19893), paclitaxel (NSC125973), vemurafenib (NSC761431), MSA-2 (NSC828583), SN-011 (NSC837082), adavosertib (NSC754352), prexasertib (NSC758257), carboplatin (NSC241240) and oxaliplatin (NSC266046), were obtained from the National Cancer Institute (NCI) Developmental Therapeutics Program Chemical Repository (21). The FDA-approved anticancer drug set is available from the Developmental Therapeutics Program at https://dtp.cancer.gov/organization/dscb/obtaining/. […] The stock solutions were prepared in dimethyl sulfoxide (DMSO, Sigma-Aldrich, St. Louis, MO, cat. D2650), except for the platinum compounds which were prepared in saline (Quality Biological, Gaithersburg, MD, cat. 114-055-101), at 800-fold the tested concentration and stored at -70 degrees C prior to their use. All drugs and investigational agents were tested over a range starting from a high concentration at or near the clinical Cmax and decreasing in half-log increments. If the clinical Cmax for an agent had not been determined, the highest concentration tested was 10 microM, except for SN-38, which was tested at a high concentration of 1 microM.
Cell Culture. All cells were maintained in an incubator at 37 degrees C and 5% CO2 with 95% humidity. The PDC lines were cultured according to standard operating procedures established by the NCI PDMR (https://pdmr.cancer.gov). Table 3 of the manuscript, lists the cell lines along with the number of the three cell types plated to form the mct-spheroids and media for tumor cell growth. After thawing, all PDC lines, except 997537-175-T-J1-PDC and 415267-285-R-J2-PDC, were cultured in Matrigel-coated flasks prepared with a working solution of 1X Ham's F-12 nutrient mix, without supplementation (Thermo Fisher Scientific, cat. 11765054), 100 U/mL penicillin-streptomycin (Thermo Fisher Scientific, cat. 15140122), and 2.5% Matrigel (Corning Inc., Corning, NY, cat. 354248) for the first three passages. The two PDC lines 997537-175-T-J1-PDC and 415267-285-R-J2-PDC were cultured on uncoated flasks. The 857933-349-R-J2-PDC line was cultured in 6C/Colon 1B media containing advanced DMEM/F-12 (Thermo Fisher Scientific, cat. 12634028), 10 mM HEPES (Thermo Fisher Scientific, cat. 15630080), 1X GlutaMAX supplement (Thermo Fisher Scientific, cat. 35050061), 0.1 mg/mL primocin (InvivoGen, San Diego, CA, cat. ant-pm-2), 10% defined fetal bovine serum, heat inactivated (HyClone Laboratories Inc., Logan, UT, cat. SH30070.03HI), 50% L-WRN conditioned media (ATCC, cat. CRL-3276), 1.25 mM N-Acetyl-L-cysteine (Sigma-Aldrich, cat. A9165), 10 mM nicotinamide (Sigma-Aldrich, cat. N0636), 1X B-27 supplement (Thermo Fisher Scientific, cat. 17504044), 1X N-2 supplement (Thermo Fisher Scientific, cat. […]
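Further: spheroids exposed to drugs for one week before measurement.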
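Wherever viability, T/C is given: percent viability relative to DMSO vehicle control taken as 100%.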

CC(=O)O[C@H]1C(=O)[C@@]2(C)[C@H]([C@H](OC(=O)c3ccccc3)[C@]3(O)C[C@H](OC(=O)[C@H](O)[C@@H](NC(=O)c4ccccc4)c4ccccc4)C(C)=C1C3(C)C)[C@]1(OC(C)=O)CO[C@@H]1C[C@@H]2O + COC1C(OC(N)=O)C(O)C(Oc2ccc3c(O)c(NC(=O)c4ccc(O)c(CC=C(C)C)c4)c(=O)oc3c2C)OC1(C)C
IC50 (second compound 0.0316 µM): 108 nM | IC50 (second compound 0.1 µM): 70.7 nM | IC50 (second compound 0.316 µM): 71.9 nM | IC50 (second compound 1 µM): 71.9 nM | IC50 (second compound 3.16 µM): 124 nM | IC50 (second compound 10 µM): 90.2 nM | viability, T/C (second compound 0.0316 µM, first compound 0.00949 µM): 77.3% | viability, T/C (second compound 0.0316 µM, first compound 0.03 µM): 75.9% | viability, T/C (second compound 0.0316 µM, first compound 0.0949 µM): 53.4% | viability, T/C (second compound 0.0316 µM, first compound 0.3 µM): 23.2% | viability, T/C (second compound 0.0316 µM, first compound 0.949 µM): 21.8% | viability, T/C (second compound 0.0316 µM, first compound 3 µM): 15.9% | viability, T/C (second compound 0.1 µM, first compound 0.00949 µM): 97% | viability, T/C (second compound 0.1 µM, first compound 0.03 µM): 63.3% | viability, T/C (second compound 0.1 µM, first compound 0.0949 µM): 46.7% | viability, T/C (second compound 0.1 µM, first compound 0.3 µM): 30.9% | viability, T/C (second compound 0.1 µM, first compound 0.949 µM): 21.4% | viability, T/C (second compound 0.1 µM, first compound 3 µM): 16% | viability, T/C (second compound 0.316 µM, first compound 0.00949 µM): 101% | viability, T/C (second compound 0.316 µM, first compound 0.03 µM): 73.1% | viability, T/C (second compound 0.316 µM, first compound 0.0949 µM): 41.4% | viability, T/C (second compound 0.316 µM, first compound 0.3 µM): 29.5% | viability, T/C (second compound 0.316 µM, first compound 0.949 µM): 21.2% | viability, T/C (second compound 0.316 µM, first compound 3 µM): 20% | viability, T/C (second compound 1 µM, first compound 0.00949 µM): 95.1% | viability, T/C (second compound 1 µM, first compound 0.03 µM): 70% | viability, T/C (second compound 1 µM, first compound 0.0949 µM): 43.8% | viability, T/C (second compound 1 µM, first compound 0.3 µM): 27.1% | viability, T/C (second compound 1 µM, first compound 0.949 µM): 22.2% | viability, T/C (second compound 1 µM, first compound 3 µM): 18.3% | viability, T/C (second compound 3.16 µM, first compound 0.00949 µM): 90.7% | viability, T/C (second compound 3.16 µM, first compound 0.03 µM): 68.3% | viability, T/C (second compound 3.16 µM, first compound 0.0949 µM): 61.3% | viability, T/C (second compound 3.16 µM, first compound 0.3 µM): 31.5% | viability, T/C (second compound 3.16 µM, first compound 0.949 µM): 22.6% | viability, T/C (second compound 3.16 µM, first compound 3 µM): 16.8% | viability, T/C (second compound 10 µM, first compound 0.00949 µM): 86.6% | viability, T/C (second compound 10 µM, first compound 0.03 µM): 84.9% | viability, T/C (second compound 10 µM, first compound 0.0949 µM): 47.1% | viability, T/C (second compound 10 µM, first compound 0.3 µM): 28% | viability, T/C (second compound 10 µM, first compound 0.949 µM): 21.6% | viability, T/C (second compound 10 µM, first compound 3 µM): 17.6%
